According to patent US10471043B2, “Compounds and methods of treating bacterial infections” (ULTUPHARMA AB, priority 2015, dated 2019):
Values after ≈ are worked out from the molar mass of the structure shown. Like-named read-outs stand apart in the source and are kept apart here.

How the values were obtained:
Pyricularia oryziae = settings: Miyakado et al 1982; cited from earlier work
E. faecium = experiment: Antimicrobial Susceptibility Test by Broth Microdilution, M07-A9 CLSI; format: cell-based; settings: Enterococcus faecium; E. faecium 7, Vancomycin-resistant, Table 5; read-out: MIC
E. faecalis = experiment: as above; format: cell-based; settings: Enterococcus faecalis
S. aureus = experiment: as above; format: cell-based; settings: Staphylococcus aureus
S. epidermidis [1] = experiment: as above; format: cell-based; settings: Staphylococcus epidermidis
[2] = Cytotoxicity assay, WST-8; settings: human, HepG2 cells, CC50 (μg/mL)
[3] = tested on: Staphylococcus aureus strain LMG15975; experiment: MIC by broth micro-dilution, AM3/PBS 1:1; format: cell-based
Method: (§1) At first (Table 1), MIC is determined by broth micro-dilution method. The test medium is Antibiotic Medium 3 (AM3; Difco Ltd) mixed with Phosphate Buffered Saline (PBS) in proportions 1:1. Selected MIC values are verified using cation-adjusted Mueller Hinton Broth (MHB; BD). Cell concentration of tested pathogen is adjusted to between 3 and 5×10^5 cells per ml. To verify cell concentration of tested pathogen, viable cell counts are performed directly after each MIC-test by dilution method with PBS as a dilution solvent. Cells are counted on the agar plates with 50% strength Vegetable Peptone Broth (50% VPB; Oxoid Ltd) after 16 to 20 h of incubation at 37° C.
(§2) Cells of pathogen suspended in test medium are distributed to the wells and the plates are incubated for 16 to 20 h at 37° C. Negative controls are wells with the test medium only and positive controls are wells with the pathogen in test medium. The MIC is defined as the lowest concentration of each compound with no visible growth of pathogen.
Example compounds of formula I were examined for antibacterial activity against the Gram-positive bacterium Staphylococcus aureus strain LMG15975 using the above described method (Table 1).

Bacillus cereus = experiment: MIC by broth micro-dilution; format: cell-based; settings: Table 4, read-out: MIC (μg/ml) B. cereus
Method: as §1, §2

Dutch Elm disease fungus = settings: Ayer & Villar 1985; cited from earlier work
[4] = cited from earlier work
[5] = Kong et al 2005; cited from earlier work
Micrococcus luteus = experiment: MIC panel of Gram-negative bacteria (Table 7); format: cell-based; settings: EN0455 Micrococcus luteus G+ PKL 3693
Enterobacter aerogenes = experiment: MIC panel of Gram-negative bacteria (Table 7); format: cell-based; settings: Klebsiella aerogenes; EN0461 Enterobacter aerogenes G− PKL 3706
E. coli = experiment: MIC panel of Gram-negative bacteria (Table 7); format: cell-based; settings: Escherichia coli
K. oxytoca = experiment: MIC panel of Gram-negative bacteria (Table 7); format: cell-based; settings: Klebsiella oxytoca; EN0392 K. oxytoca G−
P. aeruginosa = experiment: MIC panel of Gram-negative bacteria (Table 7); format: cell-based; settings: Pseudomonas aeruginosa
A. baumanii = experiment: MIC panel of Gram-negative bacteria (Table 7); format: cell-based
Serratia marescens = experiment: MIC panel of Gram-negative bacteria (Table 7); format: cell-based; settings: EN0454 Serratia marescens G− PKL 3692
Proteus mirabilis = experiment: MIC panel of Gram-negative bacteria (Table 7); format: cell-based
[6] = tested on: mupirocin-resistant strains of Staphylococcus aureus; experiment: MIC against mupirocin-resistant strains; format: cell-based
Method: as §1, §2

S. epidermidis [7] = experiment: MIC panel of Gram-negative bacteria (Table 7); format: cell-based; settings: Staphylococcus epidermidis; EN0456 S. epidermidis G+ PKL 3694
S. typhimurium = experiment: MIC panel of Gram-negative bacteria (Table 7); format: cell-based; settings: Salmonella enterica; EN0466 S. typhimurium G− TH6509
A. Pittii/nosocomialis = experiment: MIC panel of Gram-negative bacteria (Table 7); format: cell-based; settings: Acinetobacter pittii; EN0180 A. Pittii/nosocomialis G−
K. pneumoniae = experiment: MIC panel of Gram-negative bacteria (Table 7); format: cell-based; settings: Klebsiella pneumoniae
Citrobacter sp. = experiment: MIC panel of Gram-negative bacteria (Table 7); format: cell-based; settings: EN0465 Citrobacter sp. G− PKL 3710
Mycobacterium smegmatis = experiment: MIC by broth micro-dilution; format: cell-based; settings: Mycolicibacterium smegmatis; Table 4; read-out: MIC (μg/ml) M. smegmatis
Method: as §1, §2

M. frederiksbergense = experiment: MIC by broth micro-dilution; format: cell-based; settings: Table 4; read-out: MIC (μg/ml) M. frederiksbergense
Method: as §1, §2

A. baumannii = experiment: MIC by broth micro-dilution; format: cell-based; settings: Acinetobacter baumannii, A. baumannii (G−), Table 2; read-out: MIC (μg/ml) A. baumannii
Method: as §1, §2

in vitro = settings: human, CC50 (μg/mL)
[8] = E. faecalis 14, Vancomycin-resistant
[9] = E. faecalis 24, Vancomycin-sensitive, Table 5
[10] = ATCC29213, S. aureus ATCC29213, QC strain, Table 5
[11] = S. aureus 7280, Methicillin-resistant
[12] = S. aureus MO17, Methicillin-sensitive, Table 5
[13] = S. aureus PICI, Methicillin-resistant, Table 5
[14] = S. epidermis RO7, Methicillin-sensitive, Table 5
[15] = S. epidermis Staph 1, Methicillin-resistant
[16] = S. epidermis TA12, Methicillin-resistant, Table 5
[17] = LMG15975, S. aureus LMG 15975 (SLU), Methicillin-resistant, Table 5, read-out: MIC (μg/mL)
[18] = LMG15975, S. aureus LMG15975, Table 1, read-out: MIC
[19] = LMG15975, S. aureus LMG15975, Table 1, read-out: MIC (μg/ml)
[20] = reference markers for Caco-2 assay
[21] = S. aureus V55, mupirocin-resistant
[22] = S. aureus V86, mupirocin-resistant
[23] = LMG15975, Table 4, read-out: MIC (μg/ml) S. aureus

podoblastin A
activity against the fungus Pyricularia oryziae (Pyricularia oryziae): active

CCCCCCCCCCCC1CC(O)=C(C(=O)CCCC)C(=O)O1 (stereo not shown) [Ex. 17, 4-hydroxy-3-pentanoyl-6-undecyl-5,6-dihydro-2H-pyran-2-one]
MIC (E. faecium): 1 µg/mL (≈ 2.84 µM)
MIC (E. faecalis; [8]): 1 µg/mL (≈ 2.84 µM)
MIC (E. faecalis; [9]): 1 µg/mL (≈ 2.84 µM)
MIC (S. aureus; [10]): 16 µg/mL (≈ 45.4 µM)
MIC (S. aureus; [11]): 8 µg/mL (≈ 22.7 µM)
MIC (S. aureus; [12]): 4 µg/mL (≈ 11.3 µM)
MIC (S. aureus; [13]): 8 µg/mL (≈ 22.7 µM)
MIC (S. epidermidis [1]; [14]): 0.5 µg/mL (≈ 1.42 µM)
MIC (S. epidermidis [1]; [15]): 0.5 µg/mL (≈ 1.42 µM)
MIC (S. epidermidis [1]; [16]): 0.5 µg/mL (≈ 1.42 µM)
CC50 at 48 h ([2]; HepG2, 48 hours, Table 1): 12 µM
CC50 at 48 h ([2]; HepG2, Table 5): 12 µM
MIC [3, 17]: 0.1 to 0.2 µg/mL
MIC [3, 18]: 0.3 to 0.6 µM
MIC [3, 19]: 0.1 to 0.2 µg/mL
MIC (Bacillus cereus): ≤ 1 µg/mL

lachnellulic acid
activity against the Dutch Elm disease fungus (Dutch Elm disease fungus): active

OC[C@@H](O)[C@@H](O)[C@H](O)[C@H](O)CO [Mannitol]
absorption in man (%) ([4]; in vivo): 16%

N[C@@H](Cc1ccccc1)C(=O)O [L-Phenylalanine]
absorption in man (%) [4, 20]: 100%

CN(Cc1cnc2nc(N)nc(N)c2n1)c1ccc(C(=O)N[C@@H](CCC(=O)O)C(=O)O)cc1 [Methotrexate]
absorption in man (%) ([4]; in vivo): 20%

CCCCCCCc1cc(O)c(CCCCCC)c(=O)o1 [pseudopyronine B]
antibacterial activities [5]: moderate to poor

CCCCCCc1c(O)cc(CCCCC)oc1=O [pseudopyronine A]
antibacterial activities [5]: moderate to poor

CCCCCCCCCC1CC(O)=C(C(=O)CC2CCCCC2)C(=O)O1 (stereo not shown) [Ex. 14, 3-(2-cyclohexylacetyl)-4-hydroxy-6-nonyl-5,6-dihydro-2H-pyran-2-one]
MIC (Micrococcus luteus): 0.5 µg/mL (≈ 1.37 µM)
MIC (Enterobacter aerogenes): > 64 µg/mL
MIC (E. coli; EN001 E. coli WT, ENABLE Primary MIC panel): > 64 µg/mL
MIC (E. coli; EN002 E. coli DtolC, ENABLE Primary MIC panel): > 64 µg/mL
MIC (E. coli; EN003 E. coli D22 (lps mut), ENABLE Primary MIC panel): > 64 µg/mL
MIC (E. coli; EN0012 E. coli, ENABLE L2C MIC panel): > 64 µg/mL
MIC (E. coli; EN0013 E. coli Del-tolC, ENABLE L2C MIC panel): 16 µg/mL (≈ 43.9 µM)
MIC (E. coli; EN0458 E. coli B G− PKL 3698): > 64 µg/mL
MIC (K. oxytoca): > 64 µg/mL
MIC (P. aeruginosa; EN004 P. aeruginosa WT, ENABLE Primary MIC panel): > 64 µg/mL
MIC (P. aeruginosa; EN005 P. aeruginosa Efflux mut, ENABLE Primary MIC panel): > 64 µg/mL
MIC (P. aeruginosa; EN0014 P. aeruginosa, ENABLE L2C MIC panel): > 64 µg/mL
MIC (P. aeruginosa; EN0015 P. aeruginosa Efflux mut, ENABLE L2C MIC panel): > 64 µg/mL
MIC (P. aeruginosa; EN0422 P. aeruginosa G−): > 64 µg/mL
MIC (P. aeruginosa; EN0459 P. aeruginosa G− PKL 3699): > 64 µg/mL
MIC (P. aeruginosa; EN0460 P. aeruginosa G− PKL 3704): > 64 µg/mL
MIC (A. baumanii; Acinetobacter baumannii, EN007 A. baumanii WT, ENABLE Primary MIC panel, read-out: MIC): > 64 µg/mL
MIC (A. baumanii; EN0016 A. baumanii, ENABLE L2C MIC panel): >64 µg/mL
MIC (A. baumanii; EN0017 A. baumanii Efflux mut, ENABLE L2C MIC panel): >64 µg/mL
MIC (E. faecium): 1 µg/mL (≈ 2.74 µM)
MIC (Serratia marescens): > 64 µg/mL
MIC (Proteus mirabilis; EN0445 P. mirabilis ST19 G−): >64 µg/mL
MIC (Proteus mirabilis; EN0457 Proteus mirabilis G− PKL 3695, read-out: MIC): > 64 µg/mL
MIC (E. faecalis; [8]): 1 µg/mL (≈ 2.74 µM)
MIC (E. faecalis; [9]): 1 µg/mL (≈ 2.74 µM)
MIC [6, 21]: ≤0.1 µg/mL
MIC [6, 22]: ≤0.1 µg/mL
MIC ([6]; S. aureus V321, mupirocin-resistant): ≤0.1 µg/mL
MIC ([6]; Staphylococcus aureus, S. aureus V308, mupirocin-resistant, read-out: MIC): ≤ 0.1 µg/mL
MIC (S. epidermidis [7]): 1 µg/mL (≈ 2.74 µM)
MIC (S. aureus; [10]): 2 µg/mL (≈ 5.49 µM)
MIC (S. aureus; [11]): 2 µg/mL (≈ 5.49 µM)
MIC (S. aureus; [12]): 1 µg/mL (≈ 2.74 µM)
MIC (S. aureus; [13]): 1 µg/mL (≈ 2.74 µM)
MIC (S. typhimurium): > 64 µg/mL
MIC (S. epidermidis [1]; [14]): 0.5 µg/mL (≈ 1.37 µM)
MIC (S. epidermidis [1]; [15]): 0.5 µg/mL (≈ 1.37 µM)
MIC (S. epidermidis [1]; [16]): 0.5 µg/mL (≈ 1.37 µM)
CC50 at 48 h ([2]; HepG2, 48 hours, Table 1): 14 µM
CC50 at 48 h ([2]; HepG2, Table 5): 14 µM
MIC (A. Pittii/nosocomialis): > 64 µg/mL
MIC (K. pneumoniae; EN006 K. pneumoniae WT, ENABLE Primary MIC panel): > 64 µg/mL
MIC (K. pneumoniae; EN0010 K. pneumoniae, ENABLE L2C MIC panel (isogenic efflux pairs)): > 64 µg/mL
MIC (K. pneumoniae; EN0011 K. pneumoniae Efflux mut, ENABLE L2C MIC panel): > 64 µg/mL
MIC [3, 17]: 0.25 µg/mL
MIC [3, 18]: ≤ 0.3 µM
MIC [3, 19]: 0.25 µg/mL
MIC [3, 23]: ≤ 0.1 µg/mL
MIC (Citrobacter sp.): > 64 µg/mL
MIC (Bacillus cereus): ≤ 1 µg/mL

CCCCCCCCCC1CC(O)=C(C(=O)CCCC)C(=O)O1 (stereo not shown) [Ex. 8, 4-hydroxy-6-nonyl-3-pentanoyl-5,6-dihydro-2H-pyran-2-one]
MIC [6, 21]: ≤0.1 µg/mL
MIC [6, 22]: ≤0.1 µg/mL
MIC ([6]; Staphylococcus aureus, S. aureus V321, mupirocin-resistant, read-out: MIC): ≤ 0.1 µg/mL
CC50 at 48 h ([2]; HepG2, 48 hours, Table 1): 36 µM
MIC ([3]; LMG15975, S. aureus (G+), Table 2, read-out: MIC (μg/ml) S. aureus): < 0.6 µg/mL
MIC [3, 18]: ≤ 1.9 µM
MIC [3, 19]: ≤ 0.6 µg/mL
MIC [3, 23]: ≤ 0.6 µg/mL
MIC (Mycobacterium smegmatis): ≤ 4 µg/mL
MIC (M. frederiksbergense): ≤ 4 µg/mL
MIC (Bacillus cereus): ≤ 1 µg/mL
MIC (A. baumannii): 8 to 16 µg/mL (≈ 24.7 to 49.3 µM)

CCCCCCCCCCC1CC(O)=C(C(=O)CC)C(=O)O1 (stereo not shown) [Ex. 10, 6-decyl-4-hydroxy-3-propionyl-5,6-dihydro-2H-pyran-2-one]
CC50 at 48 h (in vitro): 60 µM
MIC [3, 18]: 1.3 to 2.6 µM
MIC [3, 19]: 0.4 to 0.8 µg/mL
MIC (M. frederiksbergense): ≤ 0.5 µg/mL
MIC (Bacillus cereus): ≤ 1 µg/mL

Nc1nc2c(ncn2COCCO)c(=O)[nH]1 [Acyclovir]
absorption in man (%) [4, 20]: 30%
